Test results: patent US20060069132A1, “Azolecarboxamide herbicides” (priority 2004, published 2006)

Assays:
[1] = system: lambsquarters; assay: Test C pre-/postemergence herbicide test; assay type: in vivo, Chenopodium album; conditions: for Lambsquarters plant response rating: 500 g ai/ha
Summary of the method: (§1)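 Seeds were planted and sprayed preemergence with test chemicals in a non-phytotoxic solvent mixture containing surfactant; postemergence treatments went onto plants 2 to 18 cm tall (1- to 4-leaf stage). After 12 to 14 days in a greenhouse, injury was rated visually against untreated controls on a 0–100 scale.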

[2] = system: bermudagrass; assay: Test C pre-/postemergence herbicide test; assay type: in vivo, Cynodon dactylon
Summary of the method: as §1

[3] = system: rice; assay: Test C flooded paddy test; assay type: in vivo, Oryza sativa
Summary of the method: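 Injury scored visually against controls on a 0 (no effect) to 100 (complete control) scale, 12 to 14 days after treatment in greenhouse. Flooded paddy plants treated at 2-leaf stage; postemergence plants at 1- to 4-leaf stage, 2 to 18 cm tall.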

[4] = system: kochia; assay: Test C pre-/postemergence herbicide test; assay type: in vivo, Kochia scoparia; conditions: for Kochia plant response rating: 500 g ai/ha
Summary of the method: as §1

[5] = system: barnyardgrass; assay: Test C flooded paddy test; assay type: in vivo, Echinochloa crus-galli
Summary of the method: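 Postemergence sprays applied to plants 2 to 18 cm tall (1- to 4-leaf stage); paddy species grown to 2-leaf stage under flooding. After 12 to 14 days in greenhouse, visual rating versus untreated controls on 0–100 scale (0 no effect, 100 complete control).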

[6] = system: barnyardgrass; assay: Test A pre-/postemergence herbicide test; assay type: in vivo, Echinochloa crus-galli; conditions: for Plant response rating, Barnyardgrass: Postemergence; for Barnyardgrass plant response rating: Preemergence
Summary of the method: (§2)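 Seeds sown in sandy loam received a preemergence directed soil spray of compound in non-phytotoxic solvent with surfactant; postemergence plants (2–10 cm, one- to two-leaf stage) were sprayed to runoff at the same time. After ~10 days in greenhouse, injury was rated visually versus untreated controls (0 = no effect, 100 = complete control).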

[7] = system: soybean; assay: Test C pre-/postemergence herbicide test; assay type: in vivo, Glycine max; conditions: for Soybean plant response rating: 500 g ai/ha
Summary of the method: as §1

[8] = system: large crabgrass; assay: Test C pre-/postemergence herbicide test; assay type: in vivo, Digitaria sanguinalis; conditions: for Crabgrass, Large plant response rating: 500 g ai/ha
Summary of the method: as §1

[9] = system: ducksalad; assay: Test C flooded paddy test; assay type: in vivo, Heteranthera limosa
[10] = system: common (oilseed) sunflower; assay: Test C pre-/postemergence herbicide test; assay type: in vivo, Helianthus annuus; conditions: for Plant response rating, Sunflower: visual, 12 to 14 days
Summary of the method: as §1

[11] = system: large crabgrass; assay: Test A pre-/postemergence herbicide test; assay type: in vivo, Digitaria sanguinalis; conditions: for Plant response rating, Crabgrass, Large: Postemergence; for Crabgrass, Large plant response rating: Preemergence
Summary of the method: as §2

[12] = system: giant foxtail; assay: Test C pre-/postemergence herbicide test; assay type: in vivo, Setaria faberi; conditions: for Foxtail, Giant plant response rating: 500 g ai/ha
Summary of the method: as §1

[13] = system: giant foxtail; assay: Test A pre-/postemergence herbicide test; assay type: in vivo, Setaria faberi; conditions: for Plant response rating, Foxtail, Giant: Postemergence; for Foxtail, Giant plant response rating: Preemergence
Summary of the method: as §2

[14] = 125 g ai/ha, scale 0 (no effect) to 100 (complete control), visual, 12 to 14 days, preemergence
[15] = 250 g ai/ha, scale 0 to 100 (0 no effect, 100 complete control), visual, 12 to 14 days, preemergence
[16] = Postemergence, 250 g ai/ha, scale 0 to 100, 0 no effect, 100 complete control
[17] = Preemergence, scale 0 to 100, 0 no effect, 100 complete control
[18] = postemergence, 62 g ai/ha, scale 0 to 100
[19] = Postemergence, 125 g ai/ha, scale 0 to 100, 0 no effect, 100 complete control
[20] = Preemergence, 500 g ai/ha, scale 0 to 100, 0 no effect, 100 complete control
[21] = 62 g ai/ha, scale 0 to 100 (0 no effect, 100 complete control)
[22] = 125 g ai/ha, scale of 0 to 100, 0 is no effect, 100 is complete control
[23] = 250 g ai/ha, scale of 0 to 100, 0 is no effect, 100 is complete control
[24] = 500 g ai/ha, visual rating after 12 to 14 days, scale 0 to 100 (0 no effect, 100 complete control)
[25] = 500 g ai/ha, 0 to 100 scale, 0 no effect, 100 complete control
[26] = 2000 g ai/ha, 0 to 100 scale, 0 no effect, 100 complete control
[27] = 500 g ai/ha, visual rating, 0 to 100 scale (0 no effect, 100 complete control)

CCNC(=O)c1cc(NC(=O)c2cc(C(C)(C)C)nn2CC)ccc1F [Compound 58]
Plant response rating (0 = no effect, 100 = complete control), Lambsquarters ([1]; 62 g ai/ha, preemergence): 100 | Plant response rating, Lambsquarters [1, 14]: 100 | Plant response rating, Lambsquarters [1, 15]: 100 | Lambsquarters plant response rating ([1]; Postemergence, scale 0 to 100): 90 | Plant response rating, Lambsquarters [1, 16]: 90 | Lambsquarters plant response rating [1, 17]: 100 | Plant response rating, Lambsquarters [1, 18]: 60 | Plant response rating (0 = no effect, 100 = complete control), Bermudagrass ([2]; 62 g ai/ha, preemergence): 90 | Plant response rating, Bermudagrass [2, 14]: 100 | Plant response rating, Bermudagrass [2, 15]: 100 | Bermudagrass plant response rating ([2]; Postemergence, 500 g ai/ha, scale 0 to 100): 10 | Plant response rating, Bermudagrass [2, 19]: 5 | Bermudagrass plant response rating ([2]; Postemergence, 250 g ai/ha, scale 0 to 100): 10 | Bermudagrass plant response rating [2, 20]: 100 | Plant response rating, Bermudagrass [2, 18]: 0 | Rice plant response rating [3, 21]: 0 | Rice plant response rating [3, 22]: 35 | Rice plant response rating [3, 23]: 35 | Plant response rating, Rice [3, 24]: 75 | Plant response rating (0 = no effect, 100 = complete control), Kochia ([4]; 62 g ai/ha, preemergence): 95 | Plant response rating, Kochia [4, 14]: 95 | Plant response rating, Kochia [4, 15]: 95 | Kochia plant response rating ([4]; Postemergence, scale 0 to 100): 85 | Plant response rating, Kochia [4, 19]: 80 | Plant response rating, Kochia [4, 16]: 80 | Kochia plant response rating [4, 17]: 100 | Plant response rating, Kochia [4, 18]: 75 | Barnyardgrass plant response rating [5, 21]: 0 | Barnyardgrass plant response rating [5, 22]: 10 | Barnyardgrass plant response rating [5, 23]: 35 | Plant response rating, Barnyardgrass [5, 24]: 85 | Plant response rating, Barnyardgrass [6, 25]: 70 | Plant response rating, Barnyardgrass [6, 26]: 80 | Barnyardgrass plant response rating [6, 27]: 65 | Barnyardgrass plant response rating [6, 26]: 75 | Plant response rating (0 = no effect, 100 = complete control), Soybean ([7]; 62 g ai/ha, preemergence): 0 | Plant response rating, Soybean [7, 14]: 5 | Plant response rating, Soybean [7, 15]: 25 | Soybean plant response rating ([7]; Postemergence, scale 0 to 100): 90 | Plant response rating, Soybean [7, 16]: 80 | Soybean plant response rating [7, 17]: 40 | Plant response rating, Soybean [7, 18]: 15 | Plant response rating (0 = no effect, 100 = complete control), Crabgrass, Large ([8]; 62 g ai/ha, preemergence): 90 | Plant response rating, Crabgrass, Large [8, 14]: 95 | Plant response rating, Crabgrass, Large [8, 15]: 95 | Crabgrass, Large plant response rating ([8]; Postemergence, scale 0 to 100): 30 | Plant response rating, Crabgrass, Large [8, 19]: 5 | Plant response rating, Crabgrass, Large [8, 16]: 15 | Crabgrass, Large plant response rating [8, 17]: 95 | Plant response rating, Crabgrass, Large [8, 18]: 5 | Ducksalad plant response rating [9, 21]: 0 | Ducksalad plant response rating [9, 22]: 15 | Ducksalad plant response rating [9, 23]: 20 | Plant response rating, Ducksalad [9, 24]: 60 | Plant response rating (0 = no effect, 100 = complete control), Sunflower ([10]; 62 g ai/ha, preemergence): 0 | Plant response rating, Sunflower ([10]; 125 g ai/ha, scale 0 (no effect) to 100 (complete control), preemergence): 0 | Plant response rating, Sunflower ([10]; 250 g ai/ha, scale 0 to 100 (0 no effect, 100 complete control), preemergence): 0 | Sunflower plant response rating [10, 20]: 0 | Plant response rating, Crabgrass, Large [11, 25]: 40 | Plant response rating, Crabgrass, Large [11, 26]: 75 | Crabgrass, Large plant response rating [11, 27]: 70 | Crabgrass, Large plant response rating [11, 26]: 95 | Plant response rating (0 = no effect, 100 = complete control), Foxtail, Giant ([12]; 62 g ai/ha, preemergence): 70 | Plant response rating, Foxtail, Giant [12, 14]: 100 | Plant response rating, Foxtail, Giant [12, 15]: 100 | Foxtail, Giant plant response rating ([12]; Postemergence, scale 0 to 100): 40 | Plant response rating, Foxtail, Giant [12, 19]: 5 | Plant response rating, Foxtail, Giant [12, 16]: 20 | Foxtail, Giant plant response rating [12, 17]: 100 | Plant response rating, Foxtail, Giant [12, 18]: 0 | Plant response rating, Foxtail, Giant [13, 25]: 45 | Plant response rating, Foxtail, Giant [13, 26]: 60 | Foxtail, Giant plant response rating [13, 27]: 85 | Foxtail, Giant plant response rating [13, 26]: 95
